Assay results reported in the supplement of paper PMC10307832.

Key:
Test in all cases: relative viability (nuclei count vs DMSO), 5 days (fraction); higher = more cells survive
A-427 = system: A-427
Outline: (§1)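 Lung cancer cell lines in 1536-well plates got either a single drug or a fixed anchor-drug dose together with five library-drug doses (not always all listed) in √10 steps, by pin tool, on the day after seeding. Nuclei were counted after 5 days, and relative viability is the treated-to-vehicle ratio of nuclei counts. Values are medians of duplicate plates.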

ABC-1 = system: ABC-1
Outline: as §1

CAL-12T = system: CAL-12T
Outline: as §1

H3255 = system: H3255
Outline: as §1

LCLC-97TM1 = system: LCLC-97TM1
Outline: as §1

LK-2 = system: LK-2
Outline: as §1

NCI-H1355 = system: NCI-H1355
Outline: as §1

NCI-H1395 = system: NCI-H1395
Outline: as §1

NCI-H1651 = system: NCI-H1651
Outline: as §1

NCI-H1666 = system: NCI-H1666
Outline: as §1

NCI-H1792 = system: NCI-H1792
Outline: as §1

NCI-H1915 = system: NCI-H1915
Outline: as §1

Q: Which relative viability (A-427; first compound 5 µM) does the source give for `O=C(O)CCCCC(CCSCc1ccccc1)SCc1ccccc1` (configuration not stated) [CPI-613] + CC(=O)c1c(C)c2cnc(Nc3ccc(N4CCNCC4)cn3)nc2n(C2CCCC2)c1=O [Palbociclib] (partner 0.5 µM) here?
A: 0.519

Q: And the relative viability (A-427; first compound 15.81 µM)?
A: 0.477

Q: And the relative viability (A-427; first compound 50 µM)?
A: 0.486

Q: What about the relative viability (A-427; first compound 158.11 µM) of the same molecule?
A: 0.332

Q: And the relative viability (A-427; first compound 500 µM)?
A: 0.384

Q: What about the relative viability (ABC-1; first compound 5 µM) of the same molecule?
A: 0.603

Q: What about the relative viability (ABC-1; first compound 15.81 µM) of the same molecule?
A: 0.669

Q: What about the relative viability (ABC-1; first compound 50 µM) of the same molecule?
A: 0.639

Q: What about the relative viability (ABC-1; first compound 158.11 µM) of the same molecule?
A: 0.415

Q: And the relative viability (ABC-1; first compound 500 µM)?
A: 0.4

Q: And the relative viability (CAL-12T; first compound 5 µM)?
A: 0.321

Q: What about the relative viability (CAL-12T; first compound 15.81 µM) of the same molecule?
A: 0.283

Q: What about the relative viability (CAL-12T; first compound 50 µM) of the same molecule?
A: 0.461

Q: And the relative viability (CAL-12T; first compound 158.11 µM)?
A: 0.0907

Q: What about the relative viability (CAL-12T; first compound 500 µM) of the same molecule?
A: 0.0203

Q: What about the relative viability (H3255; first compound 5 µM) of the same molecule?
A: 0.296

Q: What about the relative viability (H3255; first compound 15.81 µM) of the same molecule?
A: 0.302

Q: And the relative viability (H3255; first compound 50 µM)?
A: 0.339

Q: What about the relative viability (H3255; first compound 158.11 µM) of the same molecule?
A: 0.328

Q: And the relative viability (H3255; first compound 500 µM)?
A: 0.302

Q: What about the relative viability (LCLC-97TM1; first compound 5 µM) of the same molecule?
A: 0.232

Q: And the relative viability (LCLC-97TM1; first compound 15.81 µM)?
A: 0.207

Q: What about the relative viability (LCLC-97TM1; first compound 50 µM) of the same molecule?
A: 0.177

Q: And the relative viability (LCLC-97TM1; first compound 158.11 µM)?
A: 0.124

Q: What about the relative viability (LCLC-97TM1; first compound 500 µM) of the same molecule?
A: 0.0897

Q: And the relative viability (LK-2; first compound 5 µM)?
A: 0.766

Q: And the relative viability (LK-2; first compound 15.81 µM)?
A: 0.684

Q: And the relative viability (LK-2; first compound 50 µM)?
A: 0.726

Q: And the relative viability (LK-2; first compound 158.11 µM)?
A: 0.532

Q: And the relative viability (LK-2; first compound 500 µM)?
A: 0.547

Q: And the relative viability (NCI-H1355; first compound 5 µM)?
A: 0.429

Q: And the relative viability (NCI-H1355; first compound 15.81 µM)?
A: 0.408

Q: What about the relative viability (NCI-H1355; first compound 50 µM) of the same molecule?
A: 0.424

Q: What about the relative viability (NCI-H1355; first compound 158.11 µM) of the same molecule?
A: 0.407

Q: And the relative viability (NCI-H1355; first compound 500 µM)?
A: 0.105

Q: And the relative viability (NCI-H1395; first compound 5 µM)?
A: 0.619

Q: And the relative viability (NCI-H1395; first compound 15.81 µM)?
A: 0.641

Q: What about the relative viability (NCI-H1395; first compound 50 µM) of the same molecule?
A: 0.601

Q: And the relative viability (NCI-H1395; first compound 158.11 µM)?
A: 0.57

Q: And the relative viability (NCI-H1395; first compound 500 µM)?
A: 0.486

Q: What about the relative viability (NCI-H1651; first compound 5 µM) of the same molecule?
A: 0.51

Q: What about the relative viability (NCI-H1651; first compound 15.81 µM) of the same molecule?
A: 0.466

Q: What about the relative viability (NCI-H1651; first compound 50 µM) of the same molecule?
A: 0.487

Q: What about the relative viability (NCI-H1651; first compound 158.11 µM) of the same molecule?
A: 0.46

Q: What about the relative viability (NCI-H1651; first compound 500 µM) of the same molecule?
A: 0.514

Q: And the relative viability (NCI-H1666; first compound 5 µM)?
A: 0.68

Q: What about the relative viability (NCI-H1666; first compound 15.81 µM) of the same molecule?
A: 0.577

Q: What about the relative viability (NCI-H1666; first compound 50 µM) of the same molecule?
A: 0.574

Q: What about the relative viability (NCI-H1666; first compound 158.11 µM) of the same molecule?
A: 0.469

Q: What about the relative viability (NCI-H1666; first compound 500 µM) of the same molecule?
A: 0.425

Q: And the relative viability (NCI-H1792; first compound 5 µM)?
A: 0.627

Q: And the relative viability (NCI-H1792; first compound 15.81 µM)?
A: 0.607

Q: What about the relative viability (NCI-H1792; first compound 50 µM) of the same molecule?
A: 0.654

Q: What about the relative viability (NCI-H1792; first compound 158.11 µM) of the same molecule?
A: 0.632

Q: What about the relative viability (NCI-H1792; first compound 500 µM) of the same molecule?
A: 0.666

Q: What about the relative viability (NCI-H1915; first compound 5 µM) of the same molecule?
A: 0.5

Q: And the relative viability (NCI-H1915; first compound 15.81 µM)?
A: 0.494
